Assay results: article PMC4586081 (Journal of neuroscience research, 2008)

Experiments:
α3β2 nAChR = α3β2 nAChR (Rattus norvegicus, UniProt P04757+P12390); test: two-electrode voltage clamp, Xenopus oocytes, peak current; format: cell-based
α3β4 nAChR = α3β4 nAChR (Rattus norvegicus, UniProt P04757+P12392); test: as above; format: cell-based
Sequence of α3β4 nAChR (P04757 26-499): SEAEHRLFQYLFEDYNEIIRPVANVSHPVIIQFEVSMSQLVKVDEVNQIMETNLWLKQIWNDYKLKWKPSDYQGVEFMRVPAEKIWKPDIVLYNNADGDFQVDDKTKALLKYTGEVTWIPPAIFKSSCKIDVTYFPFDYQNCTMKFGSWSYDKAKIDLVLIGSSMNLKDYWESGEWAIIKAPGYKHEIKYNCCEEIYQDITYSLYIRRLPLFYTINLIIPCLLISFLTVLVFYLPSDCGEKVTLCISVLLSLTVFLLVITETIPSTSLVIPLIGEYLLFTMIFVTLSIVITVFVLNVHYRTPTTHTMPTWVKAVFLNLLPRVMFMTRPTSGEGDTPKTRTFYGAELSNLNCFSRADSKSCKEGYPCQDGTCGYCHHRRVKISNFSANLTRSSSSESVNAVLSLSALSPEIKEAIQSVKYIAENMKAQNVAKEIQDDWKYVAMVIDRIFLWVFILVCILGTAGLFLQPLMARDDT
Sequence of α3β4 nAChR (P12392 21-495): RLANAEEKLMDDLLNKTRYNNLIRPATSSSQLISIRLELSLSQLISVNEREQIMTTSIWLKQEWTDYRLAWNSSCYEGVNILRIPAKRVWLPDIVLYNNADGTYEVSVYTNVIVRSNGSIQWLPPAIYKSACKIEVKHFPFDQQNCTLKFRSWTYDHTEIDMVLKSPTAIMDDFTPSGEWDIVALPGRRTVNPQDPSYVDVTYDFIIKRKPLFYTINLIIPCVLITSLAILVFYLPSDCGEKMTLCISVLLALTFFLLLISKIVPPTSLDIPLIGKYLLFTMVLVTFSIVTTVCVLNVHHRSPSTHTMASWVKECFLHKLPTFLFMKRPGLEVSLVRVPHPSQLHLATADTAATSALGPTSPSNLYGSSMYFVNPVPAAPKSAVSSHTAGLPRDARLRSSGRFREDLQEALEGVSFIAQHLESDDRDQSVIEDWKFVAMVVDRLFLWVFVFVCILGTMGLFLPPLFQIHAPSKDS

Sequence of α3β2 nAChR (P04757 26-499): as the sequence (P04757 26-499) above
Sequence of α3β2 nAChR (P12390 25-500): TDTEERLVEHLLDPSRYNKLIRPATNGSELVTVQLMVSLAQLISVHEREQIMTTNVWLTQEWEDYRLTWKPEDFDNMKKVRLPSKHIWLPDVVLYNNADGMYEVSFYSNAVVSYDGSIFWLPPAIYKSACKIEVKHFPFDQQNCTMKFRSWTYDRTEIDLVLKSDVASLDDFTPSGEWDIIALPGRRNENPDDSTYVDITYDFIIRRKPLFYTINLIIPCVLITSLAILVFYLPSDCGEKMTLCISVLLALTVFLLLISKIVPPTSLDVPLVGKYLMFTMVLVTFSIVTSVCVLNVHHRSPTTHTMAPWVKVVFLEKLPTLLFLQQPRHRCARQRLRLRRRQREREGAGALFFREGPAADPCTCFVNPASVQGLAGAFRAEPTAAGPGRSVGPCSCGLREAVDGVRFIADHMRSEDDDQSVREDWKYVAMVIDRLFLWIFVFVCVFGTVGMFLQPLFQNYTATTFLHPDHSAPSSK

Structure (SMILES): C[N+]1(C)CCN(c2ccccc2)CC1 [DMPP]
- EC50 (α3β2 nAChR): 55 µM
- EC50 (α3β4 nAChR): 58 µM
